Results reported in patent publication US20080260817A1, “Compositions for the Treatment of Inflammation and Pain Using a Combination of a Cox-2 Selective Inhibitor and a Ltb4 Receptor Antagonist” (priority 2004, published 2008).

Assays:
Format in all cases: in vivo
[1] = system: collagen-induced arthritis in male DBA/1 mice; assay: Collagen-induced arthritis in mice (incidence, severity, weight); settings: for Weight: in g (unit assumed); for % Incidence: individual inhibitors in the comparison experiment
Description: Arthritis is induced in 8-12 week old male DBA/1 mice by injection of 50 micrograms of chick type II collagen (CII) in complete Freunds adjuvant (Sigma) on day 0 at the base of the tail as described in J. Stuart, Annual Rev. Immunol., 2, 199 (1984). Compounds are prepared as a suspension in 0.5% methylcelluose (Sigma, St. Louis, Mo.), 0.025% Tween 20 (Sigma). The COX-2 inhibitors (Example 1 and 2) and LTB4 receptor antagonist (Example 3) are administered alone or a COX-2 inhibitor and an LTB4 receptor antagonist in combination. The compounds are administered in non-arthritic animals by gavage in a volume of 0.1 mL beginning on day 20 post collagen injection and continuing daily until final evaluation on day 55. Animals are boosted on day 21 with 50 micrograms of collagen (CII) in incomplete Freunds adjuvant. The animals are subsequently evaluated several times each week for incidence and severity of arthritis until day 56. Any animal with paw redness or swelling is counted as arthritic. Scoring of severity is carried out using a score of 0-3 for each paw (maximal score of 12/mouse) as described in P. Wooley, et al., Trans. Proc., 15, 180 (1983). The animals are measured for incidence of arthritis and severity in the animals where arthritis is observed. The incidence of arthritis is determined at a gross level by observing the swelling or redness in the paw or digits. Severity is measured with the following guidelines. Briefly, animals displaying four normal paws, i.e., no redness or swelling are scored 0. Any redness or swelling of digits or the paw is scored as 1. Gross swelling of the whole paw or deformity is scored as 2. Ankylosis of joints is scored as 3.
Eight- to twelve-week old male DBA/1 mice were injected at the base of the tail with 50 micrograms of chick type II collagen in CFA. 21 days later, animals were boosted with 50 micrograms chick type II collagen in IFA. […] On day 56 animals were evaluated for arthritis. Any animals displaying inflammation in the paw were included as positive for incidence. In addition, paw swelling was graded on a standard scale of 0-3/paw (total score of 12/animal).

[2] = system: collagen-induced arthritis in male DBA/1 mice; assay: as above; settings: Table 4 (FIG. 2); evaluated day 56; treated from day 21; compound C-1 15 mpk bid, compound L-2 150 mpk bid, alone or combined
[3] = system: zymosan-stimulated air pouch, cells infiltrated per pouch; assay: Murine air pouch model, 2 hour zymosan; settings: Table 7 (FIG. 1); female Balb/c mice; PO BID from day 5; pouch lavage 2 hours after 1% zymosan on day 7; 30 mpk COX-2 Inhibitor, 300mpk LTB4 RA, alone or combined
Description: In the present invention, the anti-inflammatory effects of COX-2 inhibitors and LTB4 inhibitors, both alone and together, can be evaluated using the mouse air pouch model (see Example 1 and FIG. 1). Following the addition of a COX-2 inhibitor, or an LTB4 inhibitor, or both, to a zymosan-stimulated air pouch, results may be reported as the number of cells that have infiltrated per pouch as an indicator of inflammation.
Female Balb/c mice age 8-12 weeks are injected with approximately 5 milliliters of air subcutaneous using a 10 milliliter syringe with a 27-gauge needle and a 0.2 micron acrodisc filter. The animals are anesthetized with CO2/O2 mix, and then the air injection is made subcutaneously in the intrascapular region of the mouse. Animals' pouches are reinflated every 2-3 days with approximately 2-3 milliliters of air, same as above. Dosing of each compound, including Vehicle (0.5% Methylcellulose+0.025% Tween 80) or a COX-2 inhibitor (compound C-1, 15 mpk, BID), or an LTB4 receptor antagonist (compound L-2, 150 mpk, BID), or the COX-2 inhibitor combined with the LTB4 receptor antagonist (compound C-1, 30 mpk+compound L-2 150 mpk BID), starting on day 5 at 6 am. Compounds are given orally (PO) and dosed BID in a volume of 0.2 milliliters per/dose. […] Total cells/mouse is calculated using a coulter counter. […]

[4] = Table 4 (FIG. 2), C-1 15 mpk bid, L-2 150 mpk bid, alone or combined
[5] = Table 4 (FIG. 2), day 56, paw swelling graded 0-3/paw, total score of 12/animal, C-1 15 mpk bid, L-2 150 mpk bid, alone or combined
[6] = Table 6 (FIG. 4), doses not given
[7] = Table 6 (FIG. 4), score 0-3/paw, total 12/animal, doses not given

## Cc1ccc(-c2cc(C(F)(F)F)nn2-c2ccc(S(N)(=O)=O)cc2)cc1 [COX-2 Inhib., celecoxib]
[1]; [4]
  Weight: 24.66
[1]; [5]
  Severity: 5.1
[1]; [6]
  Weight: 24.66
  % Incidence: 100%
[1]; [7]
  Severity: 5.1
[2]
  % Incidence: 100%
[3]
  Total Cells/Mouse: 40600000

## O=C(O)C1(c2ccc3c(c2)OCC(Cc2ccc(-c4ccccc4)cc2)[C@H]3O)CCCC1 (stereo partly drawn) [LTB4 ra, 1-[3-([1,1′-biphenyl]-4-ylmethyl)-3,4-dihydro-4-hydroxy-2H-1-benzopyran-7-yl]-cyclopentanecarboxylic acid, (3S-trans)]
[1]; [4]
  Weight: 26.77
[1]; [5]
  Severity: 2.7
[1]; [6]
  Weight: 26.77
  % Incidence: 90%
[1]; [7]
  Severity: 2.7
[2]
  % Incidence: 90%
[3]
  Total Cells/Mouse: 38900000
